The target of assay [1] is T1, Mitogen-activated protein kinase kinase kinase kinase 2 (Homo sapiens) (UniProt Q12851).
T1 sequence (whole entry): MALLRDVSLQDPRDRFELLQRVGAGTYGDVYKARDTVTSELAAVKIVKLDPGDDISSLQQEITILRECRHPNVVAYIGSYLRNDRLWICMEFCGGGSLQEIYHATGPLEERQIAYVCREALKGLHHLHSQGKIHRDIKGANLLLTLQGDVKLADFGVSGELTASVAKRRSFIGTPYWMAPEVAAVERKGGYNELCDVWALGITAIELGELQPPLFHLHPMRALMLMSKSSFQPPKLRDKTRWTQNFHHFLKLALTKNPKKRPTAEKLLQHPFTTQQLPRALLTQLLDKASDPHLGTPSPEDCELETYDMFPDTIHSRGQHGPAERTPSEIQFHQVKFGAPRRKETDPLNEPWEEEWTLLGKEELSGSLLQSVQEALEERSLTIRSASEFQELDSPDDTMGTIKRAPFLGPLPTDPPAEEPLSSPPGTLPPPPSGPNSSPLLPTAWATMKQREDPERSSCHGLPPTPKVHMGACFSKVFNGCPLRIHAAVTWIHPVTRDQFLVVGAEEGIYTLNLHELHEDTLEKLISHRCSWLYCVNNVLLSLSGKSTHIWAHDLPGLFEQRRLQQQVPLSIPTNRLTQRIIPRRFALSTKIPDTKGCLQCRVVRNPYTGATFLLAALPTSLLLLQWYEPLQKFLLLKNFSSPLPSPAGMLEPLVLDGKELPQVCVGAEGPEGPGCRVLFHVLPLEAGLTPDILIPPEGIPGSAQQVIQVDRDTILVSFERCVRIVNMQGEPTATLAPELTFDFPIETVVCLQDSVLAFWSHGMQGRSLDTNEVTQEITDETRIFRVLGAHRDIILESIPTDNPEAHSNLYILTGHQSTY
Put plainly: Inhibition of human GCK/MAP4K2 using myelin basic protein as substrate at 1 uM in presence of 32P-ATP by Hotspot assay relative to control; values are per cent of control.

Assay [2] concerns the target Protein kinase C alpha type (Homo sapiens) (UniProt P17252). Put plainly: Inhibition of human PKCa using ERMRPRKRQGSVRRRV as substrate at 1 uM in presence of 32P-ATP by Hotspot assay relative to control; values are per cent of control.
Assay [3] addresses Activin receptor type-1-like (Homo sapiens) (UniProt P37023). Nature of the assay: Inhibition of human ALK1/ACVRL1 using casein as substrate at 1 uM in presence of 32P-ATP by Hotspot assay relative to control; values are per cent of control.
Assay [4] concerns the target Leucine-rich repeat serine/threonine-protein kinase 2 (Homo sapiens) (UniProt Q5S007). Put plainly: Inhibition of human LRRK2 using RLGRDKYKTLRQIRQ as substrate at 1 uM in presence of 32P-ATP by Hotspot assay relative to control; values are per cent of control.
Assay [5] has as its target Tyrosine-protein kinase FRK (Homo sapiens) (UniProt P42685). Nature of the assay: Inhibition of human FRK/PTK5 using poly[Glu:Tyr] (4:1) as substrate at 1 uM in presence of 32P-ATP by Hotspot assay relative to control; values are per cent of control.
Assay [6] has as its target T2, Serine/threonine-protein kinase TAO1 (Homo sapiens) (UniProt Q7L7X3).
T2 sequence (whole entry): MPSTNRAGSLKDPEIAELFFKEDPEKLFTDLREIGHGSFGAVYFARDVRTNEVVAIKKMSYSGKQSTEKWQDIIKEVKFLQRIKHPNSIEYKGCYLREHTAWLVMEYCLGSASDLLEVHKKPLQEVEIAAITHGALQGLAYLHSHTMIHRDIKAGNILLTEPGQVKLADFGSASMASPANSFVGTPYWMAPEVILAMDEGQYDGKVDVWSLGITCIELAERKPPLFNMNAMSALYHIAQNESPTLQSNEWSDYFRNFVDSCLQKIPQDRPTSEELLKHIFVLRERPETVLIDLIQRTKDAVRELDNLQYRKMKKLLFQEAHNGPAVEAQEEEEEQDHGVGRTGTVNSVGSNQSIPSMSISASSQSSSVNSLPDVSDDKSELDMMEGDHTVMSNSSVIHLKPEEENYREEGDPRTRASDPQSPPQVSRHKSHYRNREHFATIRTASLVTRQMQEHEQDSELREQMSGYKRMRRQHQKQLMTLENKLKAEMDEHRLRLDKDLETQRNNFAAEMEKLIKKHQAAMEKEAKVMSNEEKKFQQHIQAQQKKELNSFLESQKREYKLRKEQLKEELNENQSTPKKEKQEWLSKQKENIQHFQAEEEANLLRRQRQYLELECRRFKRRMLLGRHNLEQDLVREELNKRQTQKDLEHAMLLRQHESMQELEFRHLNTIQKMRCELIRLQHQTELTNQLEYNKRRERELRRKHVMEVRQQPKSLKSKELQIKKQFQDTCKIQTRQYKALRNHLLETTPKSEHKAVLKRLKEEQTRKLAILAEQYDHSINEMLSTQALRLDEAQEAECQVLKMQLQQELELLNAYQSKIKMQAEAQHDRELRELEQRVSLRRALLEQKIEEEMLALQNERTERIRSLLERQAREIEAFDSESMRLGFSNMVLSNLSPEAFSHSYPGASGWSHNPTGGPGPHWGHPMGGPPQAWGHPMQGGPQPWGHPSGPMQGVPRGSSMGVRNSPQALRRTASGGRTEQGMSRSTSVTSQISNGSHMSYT
Put plainly: Inhibition of human TAOK1 using myelin basic protein as substrate at 1 uM in presence of 32P-ATP by Hotspot assay relative to control; values are per cent of control.

In assay [7] the target is Mitogen-activated protein kinase 3 (Homo sapiens) (UniProt P27361). Put plainly: Inhibition of human ERK1 using myelin basic protein as substrate at 1 uM in presence of 32P-ATP by Hotspot assay relative to control; values are per cent of control.
Chain of Mitogen-activated protein kinase 3 (Homo sapiens) (P27361 whole entry, canonical isoform): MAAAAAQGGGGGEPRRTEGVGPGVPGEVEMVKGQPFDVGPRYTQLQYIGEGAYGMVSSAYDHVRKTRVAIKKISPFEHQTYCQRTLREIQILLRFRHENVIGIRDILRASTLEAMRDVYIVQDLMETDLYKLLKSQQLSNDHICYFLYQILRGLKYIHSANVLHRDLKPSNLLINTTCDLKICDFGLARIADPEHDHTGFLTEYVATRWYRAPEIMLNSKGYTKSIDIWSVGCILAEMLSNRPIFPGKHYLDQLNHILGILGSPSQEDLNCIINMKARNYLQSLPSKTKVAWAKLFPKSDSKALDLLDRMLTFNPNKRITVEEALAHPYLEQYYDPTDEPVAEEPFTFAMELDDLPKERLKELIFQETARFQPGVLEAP
The target in assay [8] is Phosphorylase b kinase gamma catalytic chain, skeletal muscle/heart isoform (Homo sapiens) (UniProt Q16816). Put plainly: Inhibition of human PHKg1 using KKLNRTLSFAEPG as substrate at 1 uM in presence of 32P-ATP by Hotspot assay relative to control; values are per cent of control.
Chain of Phosphorylase b kinase gamma catalytic chain, skeletal muscle/heart isoform (Homo sapiens) (Q16816 whole entry, looked up, canonical isoform): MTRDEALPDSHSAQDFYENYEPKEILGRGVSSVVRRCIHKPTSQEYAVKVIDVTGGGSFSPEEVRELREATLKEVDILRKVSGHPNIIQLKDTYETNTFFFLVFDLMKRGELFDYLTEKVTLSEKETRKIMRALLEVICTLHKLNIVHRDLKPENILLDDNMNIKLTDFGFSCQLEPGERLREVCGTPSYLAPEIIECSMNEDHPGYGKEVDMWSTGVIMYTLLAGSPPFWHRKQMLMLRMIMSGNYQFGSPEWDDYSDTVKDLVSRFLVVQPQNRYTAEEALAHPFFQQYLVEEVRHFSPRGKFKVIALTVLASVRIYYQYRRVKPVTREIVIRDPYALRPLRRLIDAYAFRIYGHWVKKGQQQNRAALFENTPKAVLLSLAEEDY

Chain of Tyrosine-protein kinase FRK (Homo sapiens) (P42685 whole entry): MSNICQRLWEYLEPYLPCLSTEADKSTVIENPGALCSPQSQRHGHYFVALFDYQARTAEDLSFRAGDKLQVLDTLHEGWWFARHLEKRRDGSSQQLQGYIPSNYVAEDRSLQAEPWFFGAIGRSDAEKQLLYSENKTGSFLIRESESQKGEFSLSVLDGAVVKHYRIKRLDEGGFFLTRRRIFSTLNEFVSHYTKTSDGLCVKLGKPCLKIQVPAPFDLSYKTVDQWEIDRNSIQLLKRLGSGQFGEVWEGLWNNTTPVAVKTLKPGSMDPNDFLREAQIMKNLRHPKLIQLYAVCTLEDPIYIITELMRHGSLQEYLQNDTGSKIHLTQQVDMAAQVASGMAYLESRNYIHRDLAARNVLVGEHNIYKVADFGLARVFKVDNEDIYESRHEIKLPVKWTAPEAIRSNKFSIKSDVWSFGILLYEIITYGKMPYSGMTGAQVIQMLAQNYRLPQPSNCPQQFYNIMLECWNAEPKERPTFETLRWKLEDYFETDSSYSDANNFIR
Chain of Leucine-rich repeat serine/threonine-protein kinase 2 (Homo sapiens) (Q5S007 whole entry): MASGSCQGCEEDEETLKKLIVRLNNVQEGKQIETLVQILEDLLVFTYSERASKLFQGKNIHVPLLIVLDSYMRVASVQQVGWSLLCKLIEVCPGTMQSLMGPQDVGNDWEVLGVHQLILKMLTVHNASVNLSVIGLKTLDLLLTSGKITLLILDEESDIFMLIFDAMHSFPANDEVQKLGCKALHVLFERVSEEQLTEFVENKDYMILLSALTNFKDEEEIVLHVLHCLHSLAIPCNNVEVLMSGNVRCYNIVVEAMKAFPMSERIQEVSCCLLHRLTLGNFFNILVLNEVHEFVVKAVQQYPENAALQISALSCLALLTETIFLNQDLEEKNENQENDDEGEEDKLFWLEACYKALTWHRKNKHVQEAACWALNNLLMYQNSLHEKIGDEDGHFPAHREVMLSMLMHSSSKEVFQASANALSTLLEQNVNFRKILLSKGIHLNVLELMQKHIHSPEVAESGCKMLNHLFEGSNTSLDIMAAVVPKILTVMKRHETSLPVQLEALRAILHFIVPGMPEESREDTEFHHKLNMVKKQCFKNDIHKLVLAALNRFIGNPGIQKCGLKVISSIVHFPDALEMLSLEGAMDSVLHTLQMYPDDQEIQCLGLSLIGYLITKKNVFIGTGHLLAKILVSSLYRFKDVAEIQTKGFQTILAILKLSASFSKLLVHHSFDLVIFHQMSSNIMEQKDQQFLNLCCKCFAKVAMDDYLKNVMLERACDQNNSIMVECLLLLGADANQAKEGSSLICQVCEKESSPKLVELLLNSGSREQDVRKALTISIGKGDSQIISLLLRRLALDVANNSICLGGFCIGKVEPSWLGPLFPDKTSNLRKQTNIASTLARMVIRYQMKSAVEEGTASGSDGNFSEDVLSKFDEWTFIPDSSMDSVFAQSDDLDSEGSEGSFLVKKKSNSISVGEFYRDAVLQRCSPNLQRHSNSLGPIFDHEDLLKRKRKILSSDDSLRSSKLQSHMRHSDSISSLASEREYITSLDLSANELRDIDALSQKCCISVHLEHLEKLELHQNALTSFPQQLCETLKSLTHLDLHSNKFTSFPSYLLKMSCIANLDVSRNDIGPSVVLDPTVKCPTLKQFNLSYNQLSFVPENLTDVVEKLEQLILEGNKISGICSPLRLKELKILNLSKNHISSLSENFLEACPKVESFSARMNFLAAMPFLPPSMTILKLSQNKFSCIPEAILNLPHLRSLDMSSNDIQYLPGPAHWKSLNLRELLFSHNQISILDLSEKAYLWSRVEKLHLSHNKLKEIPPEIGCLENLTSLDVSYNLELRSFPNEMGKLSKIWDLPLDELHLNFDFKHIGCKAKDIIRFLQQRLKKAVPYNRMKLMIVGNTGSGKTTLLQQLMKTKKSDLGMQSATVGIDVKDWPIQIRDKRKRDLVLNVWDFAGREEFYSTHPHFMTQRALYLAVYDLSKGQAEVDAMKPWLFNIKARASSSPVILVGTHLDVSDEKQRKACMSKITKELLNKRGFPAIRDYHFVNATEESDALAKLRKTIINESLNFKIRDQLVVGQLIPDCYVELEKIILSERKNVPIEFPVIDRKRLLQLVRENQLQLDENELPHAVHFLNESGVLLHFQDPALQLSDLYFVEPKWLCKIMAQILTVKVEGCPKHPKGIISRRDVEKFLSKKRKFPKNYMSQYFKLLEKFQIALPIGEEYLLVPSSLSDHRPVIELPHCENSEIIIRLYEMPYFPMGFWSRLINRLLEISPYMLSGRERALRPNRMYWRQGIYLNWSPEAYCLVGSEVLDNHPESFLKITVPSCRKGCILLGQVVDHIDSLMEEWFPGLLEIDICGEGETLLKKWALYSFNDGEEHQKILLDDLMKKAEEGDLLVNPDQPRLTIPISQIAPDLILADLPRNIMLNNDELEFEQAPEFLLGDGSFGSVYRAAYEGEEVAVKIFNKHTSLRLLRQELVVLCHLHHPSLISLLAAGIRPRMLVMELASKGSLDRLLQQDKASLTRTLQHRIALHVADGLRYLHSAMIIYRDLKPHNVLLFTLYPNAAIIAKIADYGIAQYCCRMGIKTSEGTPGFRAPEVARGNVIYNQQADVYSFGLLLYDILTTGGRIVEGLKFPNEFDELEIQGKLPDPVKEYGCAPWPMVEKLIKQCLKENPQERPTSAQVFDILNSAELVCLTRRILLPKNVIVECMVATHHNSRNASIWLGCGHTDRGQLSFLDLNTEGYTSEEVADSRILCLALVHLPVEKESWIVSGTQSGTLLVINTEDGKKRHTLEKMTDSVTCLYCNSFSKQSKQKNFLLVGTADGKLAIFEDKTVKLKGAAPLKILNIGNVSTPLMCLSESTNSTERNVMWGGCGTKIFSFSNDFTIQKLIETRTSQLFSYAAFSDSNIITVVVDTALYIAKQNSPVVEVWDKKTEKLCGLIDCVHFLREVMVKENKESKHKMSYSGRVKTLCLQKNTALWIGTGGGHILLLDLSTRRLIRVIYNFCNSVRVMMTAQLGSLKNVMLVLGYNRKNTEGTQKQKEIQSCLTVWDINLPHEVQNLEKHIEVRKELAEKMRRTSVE
Chain of Activin receptor type-1-like (Homo sapiens) (P37023 whole entry): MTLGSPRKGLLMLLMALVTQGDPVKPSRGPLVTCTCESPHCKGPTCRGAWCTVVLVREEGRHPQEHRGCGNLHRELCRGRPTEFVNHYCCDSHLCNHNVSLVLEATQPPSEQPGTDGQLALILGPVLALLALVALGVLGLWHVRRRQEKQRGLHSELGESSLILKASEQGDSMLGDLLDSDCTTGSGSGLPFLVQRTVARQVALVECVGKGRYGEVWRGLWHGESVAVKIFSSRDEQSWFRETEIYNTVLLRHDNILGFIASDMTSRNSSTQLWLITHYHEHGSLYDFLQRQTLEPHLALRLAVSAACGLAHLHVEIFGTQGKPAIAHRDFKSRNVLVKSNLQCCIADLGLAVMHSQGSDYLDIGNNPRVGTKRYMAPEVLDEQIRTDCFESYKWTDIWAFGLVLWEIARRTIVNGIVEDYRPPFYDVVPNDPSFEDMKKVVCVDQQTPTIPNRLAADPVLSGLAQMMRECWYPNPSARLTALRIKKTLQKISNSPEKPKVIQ

Consider `CC(C)S(=O)(=O)c1ccc2nccc(Nc3ccc4scnc4c3)c2c1`, for which the residual activity in assay [1] was 88.3%; in assay [2] it was 80.2%; in assay [3], 102%; in assay [4], 90.5%; in assay [5] it was 33.5%; in assay [6], 93.8%. Further, the residual activity in assay [7] is 89.9%; in assay [8], 94.8%.
In the case of `CNC(=O)c1ccc2c(c1)ncn2-c1ccc(CC(=O)OC(C)(C)C)cc1`, the residual activity in assay [1] is 91.8%; in assay [2], 107%; in assay [3], 95.4%; in assay [4], 94.5%; in assay [5], 90.8%; in assay [6] it was 98.8%. The results for the residual activity in assay [7] and in assay [8] were 94.7% and 101%, respectively.
Consider `Cc1cc(-c2cnc(N)c3c(-c4ccc5scnc5c4)csc23)n(C)n1`, for which the residual activity in assay [1] came out at 68.1%; in assay [2] it was 80.8%; in assay [3], 93.9%; in assay [4], 88.5%; in assay [5], 65.3%; in assay [6], 92.6%. The residual activity in assay [7] was 93.3%; in assay [8], 96.8%.
